Assay results reported in patent publication US11111242B2, “Pyrrolo[2,3-d]pyrimidinyl, pyrrolo[2,3-b]pyrazinyl and pyrrolo[2,3-d]pyridinyl acrylamides” (Pfizer Inc., priority 2013, dated 2021).
Read-outs that look alike come from different tables or passages of the source.

Columns and labels:
[1] = test system: IL-15 induced P-STAT5 in human PBMC (total lymphocytes); assay: PBMC IL-15 Induced P-STAT5; type: cell-based; settings: IL-15 stimulated, read-out: PBMC IL15-pSTAT5 IC50
Outline: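 Thawed human PBMC in RPMI, preincubated 30 min at 37 °C, then IL-15 stimulated. Cells methanol-permeabilized (90%, on ice 20 min) and stained for phospho-STAT5. Read by flow cytometry, gated on total lymphocytes.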

[2] = test system: IL-15 induced STAT5 phosphorylation in Human Whole Blood (total lymphocytes); assay: HWB IL-15 Induced STAT5 Phosphorylation Assay; type: cell-based; settings: Lymphocyte, IL-15 stimulated, read-out: HWB-IL15-pSTAT5 IC50

SMILES	IC50 [1] [nM]	IC50 [2] [nM]	IC50 ([1]; Homo sapiens, PBMC) [nM]
C=CC(=O)N1CCC(Nc2cnc3[nH]cc(C(=O)NC4CC(F)(F)C4)c3n2)CC1 [Example 245, 2-[(1-acryloylpiperidin-4-yl)amino]-N-(3,3-difluorocyclobutyl)-5H-pyrrolo[2,3-b]pyrazine-7-carboxamide]	228	901	
C=CC(=O)N1CCC(Nc2cnc3[nH]cc(C(=O)NCCC(F)(F)F)c3n2)CC1 [Example 246, 2-[(1-acryloylpiperidin-4-yl)amino]-N-(3,3,3-trifluoropropyl)-5H-pyrrolo[2,3-b]pyrazine-7-carboxamide]	43	186	
C=CC(=O)N1CCC(Nc2cnc3[nH]cc(C(=O)N[C@H]4CC[C@H](F)C4)c3n2)CC1 [Example 247, 2-[(1-acryloylpiperidin-4-yl)amino]-N-[(1S,3S)-3-fluorocyclopentyl]-5H-pyrrolo[2,3-b]pyrazine-7-carboxamide]		651	141
C=CC(=O)N1CCC(Nc2cnc3[nH]cc(C(=O)N[C@@H]4CCC[C@@H]4F)c3n2)CC1 [Example 251, 2-[(1-acryloylpiperidin-4-yl)amino]-N-[(1R,2S)-2-fluorocyclopentyl]-5H-pyrrolo[2,3-b]pyrazine-7-carboxamide]	73.9	810	
C=CC(=O)N1CCC(Nc2cnc3[nH]cc(C(=O)NCC(C)CC(F)(F)F)c3n2)CC1 (stereo not shown) [Example 253, 2-[(1-acryloylpiperidin-4-yl)amino]-N-(4,4,4-trifluoro-2-methylbutyl)-5H-pyrrolo[2,3-b]pyrazine-7-carboxamide]		429	77.5
C=CC(=O)N1CCC(Nc2cnc3[nH]cc(C(=O)N[C@@H]4CC[C@H](F)C4)c3n2)CC1 [Example 255, 2-[(1-acryloylpiperidin-4-yl)amino]-N-[(1R,3S)-3-fluorocyclopentyl]-5H-pyrrolo[2,3-b]pyrazine-7-carboxamide]		818	130
C=CC(=O)N1CCC(Nc2cnc3[nH]cc(C(=O)NC4CCCCC4(F)F)c3n2)CC1 (stereo not shown) [Example 256, 2-[(1-acryloylpiperidin-4-yl)amino]-N-(2,2-difluorocyclohexyl)-5H-pyrrolo[2,3-b]pyrazine-7-carboxamide]	48.6	550	
C=CC(=O)N1CCC(Nc2cnc3[nH]cc(C(=O)NC4CCC(F)(F)C4)c3n2)CC1 (stereo not shown) [Example 259, 2-[(1-acryloylpiperidin-4-yl)amino]-N-(3,3-difluorocyclopentyl)-5H-pyrrolo[2,3-b]pyrazine-7-carboxamide]	117	668	
C=CC(=O)N1CCC(Nc2cnc3[nH]cc(C(=O)NCCC#N)c3n2)CC1 [Example 261, 2-[(1-acryloylpiperidin-4-yl)amino]-N-(2-cyanoethyl)-5H-pyrrolo[2,3-b]pyrazine-7-carboxamide]	214	215	
C=CC(=O)N1CCC(Nc2cnc3[nH]cc(C(=O)N[C@H](CC)CC#N)c3n2)CC1 [Example 263, 2-[(1-acryloylpiperidin-4-yl)amino]-N-[(2R)-1-cyanobutan-2-yl]-5H-pyrrolo[2,3-b]pyrazine-7-carboxamide]	74.3	431	
C=CC(=O)N1CCC(Nc2cnc3[nH]cc(C(=O)NC(C)(C)C)c3n2)CC1 [Example 266, 2-[(1-acryloylpiperidin-4-yl)amino]-N-tert-butyl-5H-pyrrolo[2,3-b]pyrazine-7-carboxamide]	71	386	
C=CC(=O)N1CCC(Nc2cnc3[nH]cc(C(=O)N[C@@H](C)CCC)c3n2)CC1 [Example 267, 2-[(1-acryloylpiperidin-4-yl)amino]-N-[(2S)-pentan-2-yl]-5H-pyrrolo[2,3-b]pyrazine-7-carboxamide]	36	242	
C=CC(=O)N1CCC(Nc2cnc3[nH]cc(C(=O)N[C@H](C)COC)c3n2)CC1 [Example 268, 2-[(1-acryloylpiperidin-4-yl)amino]-N-[(2R)-1-methoxypropan-2-yl]-5H-pyrrolo[2,3-b]pyrazine-7-carboxamide]		263	43.4
C=CC(=O)N1CCC(Nc2cnc3[nH]cc(C(=O)NCCCC)c3n2)CC1 [Example 269, 2-[(1-acryloylpiperidin-4-yl)amino]-N-butyl-5H-pyrrolo[2,3-b]pyrazine-7-carboxamide]	47.9	364	
C=CC(=O)N1CCC(Nc2cnc3[nH]cc(C(=O)NCC4CCCC4)c3n2)CC1 [Example 270, 2-[(1-acryloylpiperidin-4-yl)amino]-N-(cyclopentylmethyl)-5H-pyrrolo[2,3-b]pyrazine-7-carboxamide]		1220	53.6
C=CC(=O)N1CCC(Nc2cnc3[nH]cc(C(=O)NCC(C)(C)C)c3n2)CC1 [Example 271, 2-[(1-acryloylpiperidin-4-yl)amino]-N-(2,2-dimethylpropyl)-5H-pyrrolo[2,3-b]pyrazine-7-carboxamide]		790	135

SMILES	IC50 [1] [nM]	IC50 [2] [nM]	IC50 ([1]; Homo sapiens, PBMC) [nM]
C=CC(=O)N1CCC(Nc2cnc3[nH]cc(C(=O)NCC(C)C)c3n2)CC1 [Example 272, 2-[(1-acryloylpiperidin-4-yl)amino]-N-(2-methylpropyl)-5H-pyrrolo[2,3-b]pyrazine-7-carboxamide]		259	72.3
C=CC(=O)N1CCC(Nc2cnc3[nH]cc(C(=O)NCC(F)(F)F)c3n2)CC1 [Example 273, 2-[(1-acryloylpiperidin-4-yl)amino]-N-(2,2,2-trifluoroethyl)-5H-pyrrolo[2,3-b]pyrazine-7-carboxamide]	56.7	214	
C=CC(=O)N1CCC(Nc2cnc3[nH]cc(C(=O)N[C@H](C)CCC)c3n2)CC1 [Example 274, 2-[(1-acryloylpiperidin-4-yl)amino]-N-[(2R)-pentan-2-yl]-5H-pyrrolo[2,3-b]pyrazine-7-carboxamide]	57.9	476	
C=CC(=O)N1CCC(Nc2cnc3[nH]cc(C(=O)NCCOC)c3n2)CC1 [Example 275, 2-[(1-acryloylpiperidin-4-yl)amino]-N-(2-methoxyethyl)-5H-pyrrolo[2,3-b]pyrazine-7-carboxamide]	149	389	
C=CC(=O)N1CCC(Nc2cnc3[nH]cc(C(=O)NC(C)(C)CC)c3n2)CC1 [Example 276, 2-[(1-acryloylpiperidin-4-yl)amino]-N-(2-methylbutan-2-yl)-5H-pyrrolo[2,3-b]pyrazine-7-carboxamide]	57.8	487	
C=CC(=O)N1CCC(Nc2cnc3[nH]cc(C(=O)N[C@@H](C)COC)c3n2)CC1 [Example 277, 2-[(1-acryloylpiperidin-4-yl)amino]-N-[(2S)-1-methoxypropan-2-yl]-5H-pyrrolo[2,3-b]pyrazine-7-carboxamide]		83.2	103
C=CC(=O)N1CCC(Nc2cnc3[nH]cc(C(=O)NC4CCCCC4)c3n2)CC1 [Example 278, 2-[(1-acryloylpiperidin-4-yl)amino]-N-cyclohexyl-5H-pyrrolo[2,3-b]pyrazine-7-carboxamide]	57.4	362	
C=CC(=O)N1CCC(Nc2cnc3[nH]cc(C(=O)NC4CCC4)c3n2)CC1 [Example 280, 2-[(1-acryloylpiperidin-4-yl)amino]-N-cyclobutyl-5H-pyrrolo[2,3-b]pyrazine-7-carboxamide]	39.4	376	
C=CC(=O)N1CCC(Nc2cnc3[nH]cc(C(=O)NC45CC(C4)C5)c3n2)CC1 [Example 281, 2-[(1-acryloylpiperidin-4-yl)amino]-N-(bicyclo[1.1.1]pent-1-yl)-5H-pyrrolo[2,3-b]pyrazine-7-carboxamide]		489	31.5
C=CC(=O)N1CCC(Nc2cnc3[nH]cc(C(=O)NCC(C)(F)F)c3n2)CC1 [Example 282, 2-[(1-acryloylpiperidin-4-yl)amino]-N-(2,2-difluoropropyl)-5H-pyrrolo[2,3-b]pyrazine-7-carboxamide]	71.7	432	
C=CC(=O)N1CCC(Nc2cnc3[nH]cc(C(=O)NC4CCCC4)c3n2)CC1 [Example 283, 2-[(1-acryloylpiperidin-4-yl)amino]-N-cyclopentyl-5H-pyrrolo[2,3-b]pyrazine-7-carboxamide]		700	58.4
C=CC(=O)N1CCC(Nc2cnc3[nH]cc(C(=O)N[C@@H](C)CC)c3n2)CC1 [Example 285, 2-[(1-acryloylpiperidin-4-yl)amino]-N-[(2S)-butan-2-yl]-5H-pyrrolo[2,3-b]pyrazine-7-carboxamide]	31.4	373	
C=CC(=O)N1CCC(Nc2cnc3[nH]cc(C(=O)NC(C)C4CC4)c3n2)CC1 (stereo not shown) [Example 288, 2-[(1-acryloylpiperidin-4-yl)amino]-N-(1-cyclopropylethyl)-5H-pyrrolo[2,3-b]pyrazine-7-carboxamide]		358	44.4
C=CC(=O)N1CCC(Nc2cnc3[nH]cc(C(=O)N[C@H](C)CC)c3n2)CC1 [Example 289, 2-[(1-acryloylpiperidin-4-yl)amino]-N-[(2R)-butan-2-yl]-5H-pyrrolo[2,3-b]pyrazine-7-carboxamide]	37.5	106	
C=CC(=O)N1CCN(c2cnc3[nH]cc(C(=O)NC(C)C)c3n2)CC1(C)C [Example 293, 2-(4-acryloyl-3,3-dimethylpiperazin-1-yl)-N-(propan-2-yl)-5H-pyrrolo[2,3-b]pyrazine-7-carboxamide]		4490	300
C=CC(=O)N1CCN(c2cnc3[nH]cc(C(=O)NC(C)C)c3n2)C[C@@H]1C [Example 295, 2-[(3S)-4-acryloyl-3-methylpiperazin-1-yl]-N-(propan-2-yl)-5H-pyrrolo[2,3-b]pyrazine-7-carboxamide]	334	2670	
